For series [1], the system named is E. coli. As to the kind of experiment: Biocidal effect of terpenes in organic preservative-free apple juice (Example 7). The series is classed as cell-based. Particulars: 250 ppm in unpasteurized apple juice, E. coli added, one week room temperature. Here is the method:
To 100 ml of unpasteurized apple juice was added different concentration of terpenes varying from 0 to 250 ppm. After mixing, 0.5 ml of 1×10^6 cfu E. coli was added to each juice/terpene mixture and incubated at room temperature for a week. After incubation, 0.1 ml of each of the solutions was plated onto nutrient agar and incubated for 18 hours at 37° C. Results are expressed as cfu/ml and percent reduction as compared to control.

The format of series [2] is physicochemical. As to conditions: buffer, 1000 ppm. How it is done:
A solution containing 1000 ppm citral in distilled water was homogenized with a high speed homogenizer. This solution was stored in a beaker covered with porous paper for a week. The concentration of citral remaining after a week was determined by a gas chromatography. A standard curve was prepared with reagent grade citral to which b-ionone was used as internal standard. At the beginning of the study and after a week the concentration of citral was determined by plotting it on the standard curve.

The subject of series [3] is E. coli. Particulars: cited from earlier work.
The format of series [4] is physicochemical. Particulars: buffer, 1000 ppm. How it is done:
A solution containing 1000 ppm citral in distilled water was homogenized with a high speed homogenizer. This solution was stored in a closed glass bottle for four weeks. Concentration of citral remaining was determined by a gas chromatography. A standard curve was prepared with reagent grade citral to which b-ionone was used as internal standard. At the beginning of the study and weekly the concentration of citral was determined by plotting it on the standard curve.
The source holds these as a separate data set.

SMILES strings stand for the structures. Read-outs that look alike come from different tables or passages of the source.

As to `CC(=O)/C=C/C1=C(C)CCCC1(C)C` [B-ionone], in the series on E. coli [1], the “% reduction” value turned out to be 100% and the cfu/ml was determined as 0 cfu/ml.

As for `CC(C)=CCCC(C)=CC=O` [Citral, citral], the “Percentage of citral remaining, Week 1” value in series [2] (1 week) turned out to be 21.5%; in series [4] (1 week), 32%. Also, the “Percentage of citral remaining, Day 1” value in series [2] (1 day) and in series [4] (1 day) was 100% each time. In addition, the “citral concentration in growth media that reduced the concentration of E. coli” value in the series with E. coli [3] is reported as “more than 0.01%”. Further, the “citral concentration with bactericidal effect” value with E. coli [3] (growth media) is on record as 0.08%. Besides, the “% reduction” value in the series on E. coli [1] was determined as 100%. This compound also came in with a cfu/ml in the series with E. coli [1] of 0 cfu/ml. Also, in series [4] (2 week), the “Percentage of citral remaining, Week 2” value is reported as 27%. The “Percentage of citral remaining, Week 4” value in series [4] (4 week) turned out to be 22%.

Source of the values: US20050170052A1, “Water and feed preservative for animal uses” (priority 2004, published 2005).
